Experimental data: paper PMC6222422, “Synthesis and Biological Evaluation of Novel Indole-Derived Thioureas” (Molecules : A Journal of Synthetic Chemistry and Natural …, 2018)
≈ marks a conversion by molar mass, not a printed value. Where two headings read alike, the source gives them in different places.

Columns and labels:
[1] = tested on: S. aureus NCTC 4163; assay: MIC, twofold serial agar dilution; type: cell-based; conditions: Staphylococcus aureus, NCTC4163, 18 h, 35 °C, read-out: minimal inhibitory concentrations (MIC)
[2] = tested on: S. aureus ATCC 25923; assay: MIC, twofold serial agar dilution; type: cell-based; conditions: Staphylococcus aureus, ATCC25923, 18 h, 35 °C, read-out: minimal inhibitory concentrations (MIC)
[3] = tested on: S. aureus ATCC 6538; assay: MIC, twofold serial agar dilution; type: cell-based; conditions: Staphylococcus aureus, ATCC6538, 18 h, 35 °C, read-out: minimal inhibitory concentrations (MIC)
[4] = tested on: S. aureus ATCC 29213; assay: MIC, twofold serial agar dilution; type: cell-based; conditions: Staphylococcus aureus, ATCC29213, 18 h, 35 °C, read-out: minimal inhibitory concentrations (MIC)
[5] = tested on: B. subtilis ATCC 6633; assay: MIC, twofold serial agar dilution; type: cell-based; conditions: Bacillus subtilis, ATCC6633, 18 h, 35 °C, read-out: minimal inhibitory concentrations (MIC)
[6] = tested on: B. cereus ATCC 11778; assay: MIC, twofold serial agar dilution; type: cell-based; conditions: Bacillus cereus, ATCC11778, 18 h, 35 °C, read-out: minimal inhibitory concentrations (MIC)
[7] = tested on: M. luteus ATCC 9341; assay: MIC, twofold serial agar dilution; type: cell-based; conditions: Micrococcus luteus, ATCC9341, 18 h, 35 °C, read-out: minimal inhibitory concentrations (MIC)
[8] = tested on: M. luteus ATCC 10240; assay: MIC, twofold serial agar dilution; type: cell-based; conditions: Micrococcus luteus, ATCC10240, 18 h, 35 °C, read-out: minimal inhibitory concentrations (MIC)
[9] = tested on: S. aureus NCTC 4163; assay: disc diffusion method; type: cell-based, Staphylococcus aureus; conditions: Staphylococcus aureus, NCTC4163, applied 400 µg per disc, dash = lack of the growth inhibition area, read-out: diameter of growth inhibitory zone (GIZ)
[10] = tested on: S. aureus ATCC 25923; assay: disc diffusion method; type: cell-based, Staphylococcus aureus; conditions: Staphylococcus aureus, ATCC25923, applied 400 µg per disc, dash = lack of the growth inhibition area, read-out: diameter of growth inhibitory zone (GIZ)
[11] = tested on: S. aureus ATCC 6538; assay: disc diffusion method; type: cell-based, Staphylococcus aureus; conditions: Staphylococcus aureus, ATCC6538, applied 400 µg per disc, dash = lack of the growth inhibition area, read-out: diameter of growth inhibitory zone (GIZ)
[12] = tested on: S. aureus ATCC 29213; assay: disc diffusion method; type: cell-based, Staphylococcus aureus; conditions: Staphylococcus aureus, ATCC29213, applied 400 µg per disc, dash = lack of the growth inhibition area, read-out: diameter of growth inhibitory zone (GIZ)
[13] = tested on: B. subtilis ATCC 6633; assay: disc diffusion method; type: cell-based, Bacillus subtilis; conditions: Bacillus subtilis, ATCC6633, applied 400 µg per disc, dash = lack of the growth inhibition area, read-out: diameter of growth inhibitory zone (GIZ)
[14] = tested on: B. cereus ATCC 11778; assay: disc diffusion method; type: cell-based, Bacillus cereus; conditions: Bacillus cereus, ATCC11778, applied 400 µg per disc, dash = lack of the growth inhibition area, read-out: diameter of growth inhibitory zone (GIZ)
[15] = tested on: M. luteus ATCC 9341; assay: disc diffusion method; type: cell-based, Micrococcus luteus; conditions: Micrococcus luteus, ATCC9341, applied 400 µg per disc, dash = lack of the growth inhibition area, read-out: diameter of growth inhibitory zone (GIZ)
[16] = tested on: M. luteus ATCC 10240; assay: disc diffusion method; type: cell-based, Micrococcus luteus; conditions: Micrococcus luteus, ATCC10240, applied 400 µg per disc, dash = lack of the growth inhibition area, read-out: diameter of growth inhibitory zone (GIZ)
[17] = tested on: BVDV; assay: microbe, parasite or virus in culture; type: cell-based, bovine viral diarrhoea virus; conditions: Bovine viral diarrhea virus isolates and strains, MDBK, in Bos taurus, read-out: BVDV EC50
[18] = tested on: YFV; assay: microbe, parasite or virus in culture; type: cell-based; conditions: Yellow fever virus, BHK, read-out: YFV EC50
[19] = tested on: CV-B5; assay: microbe, parasite or virus in culture; type: cell-based, coxsackievirus B5; conditions: Enterovirus B, CVB5, Vero 76, read-out: CV-B5 EC50
[20] = tested on: Sb-1; assay: microbe, parasite or virus in culture; type: cell-based, poliovirus type-1; conditions: Enterovirus C, Vero 76, read-out: Sb-1 EC50
[21] = tested on: Reo-1; assay: microbe, parasite or virus in culture; type: cell-based, reovirus type-1; conditions: Reovirus sp., BHK, read-out: Reo-1 EC50
[22] = tested on: RSV; assay: microbe, parasite or virus in culture; type: cell-based, human respiratory syncytial virus; conditions: for EC50: human respiratory syncytial virus, Vero 76, read-out: RSV EC50
[23] = tested on: VSV; assay: microbe, parasite or virus in culture; type: cell-based; conditions: Vesicular stomatitis virus, Vero 76, read-out: VSV EC50
[24] = tested on: VV; assay: microbe, parasite or virus in culture; type: cell-based; conditions: Orthopoxvirus vaccinia, Vero 76, read-out: VV EC50
[25] = tested on: HSV-1; assay: microbe, parasite or virus in culture; type: cell-based, human herpes 1; conditions: Human alphaherpesvirus 1, Vero 76, read-out: HSV-1 EC50
[26] = in vitro; conditions: human
[27] = in vitro; conditions: cattle (Bos taurus)
[28] = in vitro; conditions: Syrian hamster (Mesocricetus auratus)
[29] = in vitro; conditions: African green monkey (Cercopithecus aethiops)
[30] = tested on: S. epidermidis (MRSE); assay: MIC against hospital strains; conditions: Staphylococcus epidermidis
[31] = tested on: HIV-1; assay: microbe, parasite or virus in culture
[32] = tested on: HIV-1 N119 (Y181C mutant); assay: microbe, parasite or virus in culture; type: cell-based, Human Immunodeficiency Virus type-1; conditions: Human immunodeficiency virus 1, MT4, read-out: EC50 N119
[33] = tested on: HIV-1 A17 (K103N + Y181C mutant); assay: microbe, parasite or virus in culture; type: cell-based, Human Immunodeficiency Virus type-1; conditions: Human immunodeficiency virus 1, MT4, 96 h, read-out: EC50 A17
[34] = tested on: HIV-1 EFV^R (K103R + V179D + P225H mutant); assay: microbe, parasite or virus in culture; type: cell-based, Human Immunodeficiency Virus type-1; conditions: Human immunodeficiency virus 1, MT4, 96 h, read-out: EC50 EFV^R
[35] = tested on: HIV-1 AZT^R strain (67N, 70R, 215F, 219Q); assay: microbe, parasite or virus in culture; type: cell-based, Human Immunodeficiency Virus type-1; conditions: Human immunodeficiency virus 1, MT4, read-out: EC50 AZT^R
[36] = tested on: HIV-1 MDR strain (74V, 41L, 106A, 215Y); assay: microbe, parasite or virus in culture; type: cell-based, Human Immunodeficiency Virus type-1; conditions: Human immunodeficiency virus 1, MT4, read-out: EC50 MDR
[37] = hospital S. epidermidis MRSE strain 430/11
[38] = hospital S. epidermidis MRSE strain 431/11
[39] = hospital S. epidermidis MRSE strain 432/11
[40] = hospital S. epidermidis MRSE strain 433/11
[41] = hospital S. epidermidis MRSE strain 434/11
[42] = hospital S. epidermidis MRSE strain 435/11
[43] = hospital S. epidermidis MRSE strain 436/11
[44] = hospital S. epidermidis MRSE strain 437/11
[45] = hospital S. epidermidis MRSE strain 438/11
[46] = hospital S. epidermidis MRSE strain 439/11
[47] = Human immunodeficiency virus 1, MT4, read-out: HIV-1 EC50

S=C(NCCc1c[nH]c2ccccc12)Nc1ccccc1Br [Compound 15, 1-(2-(1H-Indol-3-yl)ethyl)-3-(2-bromophenyl)thiourea]
MIC [1]: 50 µg/mL (≈ 134 µM)
MIC [2]: 100 µg/mL (≈ 267 µM)
MIC [3]: 50 µg/mL (≈ 134 µM)
MIC [4]: 50 µg/mL (≈ 134 µM)
MIC [5]: 50 µg/mL (≈ 134 µM)
MIC [6]: 50 µg/mL (≈ 134 µM)
MIC [7]: 200 µg/mL (≈ 534 µM)
MIC [8]: 50 µg/mL (≈ 134 µM)
zone of inhibition at 400 µg/disc [9]: 11 mm
zone of inhibition at 400 µg/disc [10]: 11 mm
zone of inhibition at 400 µg/disc [11]: 12 mm
zone of inhibition at 400 µg/disc [12]: 11 mm
zone of inhibition at 400 µg/disc [13]: 15 mm
zone of inhibition at 400 µg/disc [14]: 14 mm
zone of inhibition at 400 µg/disc [15]: 13 mm
zone of inhibition at 400 µg/disc [16]: 14 mm
EC50 [17]: > 48 µM
EC50 [18]: > 28 µM
EC50 [19]: > 46 µM
EC50 [20]: > 46 µM
EC50 [21]: > 28 µM
activity against RSV (in words) [22]: moderately active
EC50 [22]: 20 ± 2.5 µM
EC50 [23]: > 46 µM
EC50 [24]: > 46 µM
EC50 [25]: > 46 µM
melting point: 150 to 152 °C
CC50 [26]: 46 µM
CC50 [27]: 48 µM
CC50 [28]: 28 µM
CC50 [29]: 46 µM
MIC [30, 37]: 400 µg/mL (≈ 1070 µM)
MIC [30, 38]: 50 µg/mL (≈ 134 µM)
MIC [30, 39]: 50 µg/mL (≈ 134 µM)
MIC [30, 40]: 50 µg/mL (≈ 134 µM)
MIC [30, 41]: 50 µg/mL (≈ 134 µM)
MIC [30, 42]: 100 µg/mL (≈ 267 µM)
MIC [30, 43]: 100 µg/mL (≈ 267 µM)
MIC [30, 44]: 100 µg/mL (≈ 267 µM)
MIC [30, 45]: 200 µg/mL (≈ 534 µM)
MIC [30, 46]: 50 µg/mL (≈ 134 µM)
EC50 [31, 47]: > 46 µM

C=C(C)CNC(=S)NCCc1c[nH]c2ccccc12 [Compound 19, 1-(2-(1H-Indol-3-yl)ethyl)-3-(2-methylallyl)thiourea]
MIC [1]: 400 µg/mL (≈ 1460 µM)
MIC [2]: 400 µg/mL (≈ 1460 µM)
MIC [3]: 200 µg/mL (≈ 732 µM)
MIC [5]: 400 µg/mL (≈ 1460 µM)
MIC [6]: 200 µg/mL (≈ 732 µM)
MIC [7]: 200 µg/mL (≈ 732 µM)
MIC [8]: 50 µg/mL (≈ 183 µM)
zone of inhibition at 400 µg/disc [9]: 12 mm
zone of inhibition at 400 µg/disc [10]: 12 mm
zone of inhibition at 400 µg/disc [11]: 11 mm
zone of inhibition at 400 µg/disc [13]: 13 mm
zone of inhibition at 400 µg/disc [14]: 13 mm
zone of inhibition at 400 µg/disc [15]: 13 mm
zone of inhibition at 400 µg/disc [16]: 14 mm
EC50 [17]: ≥ 100 µM
EC50 [18]: > 35 µM
EC50 [19]: > 89 µM
EC50 [20]: > 89 µM
EC50 [21]: > 35 µM
EC50 [22]: > 89 µM
EC50 [23]: > 89 µM
EC50 [24]: > 89 µM
EC50 [25]: > 89 µM
melting point: 141 to 143 °C
CC50 [26]: > 100 µM
CC50 [27]: > 100 µM
CC50 [28]: 35 µM
CC50 [29]: 89 µM
MIC [30, 37]: 12.5 µg/mL (≈ 45.7 µM)
MIC [30, 38]: 100 µg/mL (≈ 366 µM)
MIC [30, 39]: 12.5 µg/mL (≈ 45.7 µM)
MIC [30, 40]: 50 µg/mL (≈ 183 µM)
MIC [30, 41]: 12.5 µg/mL (≈ 45.7 µM)
MIC [30, 42]: 50 µg/mL (≈ 183 µM)
MIC [30, 43]: 100 µg/mL (≈ 366 µM)
MIC [30, 44]: 200 µg/mL (≈ 732 µM)
MIC [30, 45]: 100 µg/mL (≈ 366 µM)
MIC [30, 46]: 50 µg/mL (≈ 183 µM)
EC50 [31, 47]: > 100 µM

O=C1Nc2ccc(Cl)cc2[C@@](C#CC2CC2)(C(F)(F)F)O1 [Efavirenz]
EC50 [32]: 0.018 ± 0.002 µM
EC50 [33]: 0.075 ± 0.009 µM
EC50 [34]: 7 ± 0.8 µM
EC50 [35]: 0.001 ± 0.0002 µM
CC50 [26]: 40 µM

Cc1ccnc2c1NC(=O)c1cccnc1N2C1CC1 [Nevirapine]
EC50 [32]: 6.3 ± 0.05 µM
EC50 [33]: 80 µM
EC50 [34]: 100 µM
EC50 [35]: 0.078 ± 0.008 µM
EC50 [36]: 5 ± 0.6 µM
CC50 [26]: > 100 µM
EC50 ([31]; Human immunodeficiency virus 1, MT4, read-out: EC50 HIV-1): 0.08 ± 0.005 µM
